# Data taken from ChEMBL document CHEMBL1135451, “Electrochemical and peroxidase oxidation study of N'-hydroxyguanidine derivatives as NO donors” (Bioorg Med Chem Lett, 2002).
# Experiment: NO-releasing ability under the oxidation by horseradish peroxidase (HRP) in the presence of H2O2 for 20min, expressed as nitrite concentration
# Type: functional
row,SMILES,Concentration
1,N=C(NO)Nc1ccc(Cl)cc1,63 µM
2,N/C(=N/Cc1ccc([N+](=O)[O-])cc1)NO,65 µM
3,N/C(=N/Cc1ccc(Cl)cc1)NO,151 µM
4,N/C(=N/CCCC(N)C(=O)O)NO (configuration not stated),12 µM
5,N/C(=N/c1ccc(Br)cc1)NO,54 µM
6,Cc1ccc(NC(=N)NO)cc1,6 µM
7,COc1ccc(C/N=C(/N)NO)cc1,49 µM
8,N=C(NO)Nc1ccccc1,28 µM
9,N=C(N)NCCC[C@H](N)C(=O)O,0 µM
10,COc1ccc(NC(=N)NO)cc1,24 µM
11,Cc1ccc(C/N=C(/N)NO)cc1,113 µM
12,N=C(NO)NCc1ccccc1,33 µM
